Data taken from the kinase profiling compilation of Christmann-Franck et al. (2016).

Assays:
Assay in all cases: radiometric filter-binding kinase assay
MELK (human) = MELK (human) (UniProt Q14680)
INSR (human) = INSR (human) (UniProt P06213)
PRKCZ (human) = PRKCZ (human) (UniProt Q05513)
MAPK15 (human) = MAPK15 (human) (UniProt Q8TD08)
MAPK11 (human) = MAPK11 (human) (UniProt Q15759)
MAPKAPK5 (human) = MAPKAPK5 (human) (UniProt Q8IW41)
RPS6KA3 KD1 KD2 (human) = RPS6KA3 KD1 KD2 (human) (UniProt P51812)
SRC (human) = SRC (human) (UniProt P12931)
IGF1R (human) = IGF1R (human) (UniProt P08069)
CAMKK2 (human) = CAMKK2 (human) (UniProt Q96RR4)
CSNK1D (human) = CSNK1D (human) (UniProt P48730)
[1] = tested on: AKT2 (human), P31751 [S474D]
ROCK2 (rat) = conditions: accession and sequence are those of the human protein
CSK (human) = CSK (human) (UniProt P41240)
GSK3B (human) = GSK3B (human) (UniProt P49841)
EPHA2 (human) = EPHA2 (human) (UniProt P29317)
LCK (mouse) = conditions: accession and sequence are those of the human protein
FGFR1 (human) = FGFR1 (human) (UniProt P11362)
MAPK14 (human) = MAPK14 (human) (UniProt Q16539)
DYRK3 (human) = DYRK3 (human) (UniProt O43781)
FLT1 (human) = FLT1 (human) (UniProt P17948)

Sequence of MAPK11 (human) (Q15759 whole entry, looked up): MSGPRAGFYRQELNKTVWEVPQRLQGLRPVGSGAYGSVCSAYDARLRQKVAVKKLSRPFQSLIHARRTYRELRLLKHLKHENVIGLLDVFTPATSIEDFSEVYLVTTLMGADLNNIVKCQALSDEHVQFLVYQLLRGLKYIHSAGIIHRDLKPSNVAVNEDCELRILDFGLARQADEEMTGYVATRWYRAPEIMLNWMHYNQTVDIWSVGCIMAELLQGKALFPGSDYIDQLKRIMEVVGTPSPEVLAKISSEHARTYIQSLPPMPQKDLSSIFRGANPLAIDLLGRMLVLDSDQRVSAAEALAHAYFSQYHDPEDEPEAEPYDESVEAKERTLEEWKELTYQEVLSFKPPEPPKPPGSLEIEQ
Sequence of AKT2 (human), P31751 [S474D] (P31751 whole entry S474D, looked up): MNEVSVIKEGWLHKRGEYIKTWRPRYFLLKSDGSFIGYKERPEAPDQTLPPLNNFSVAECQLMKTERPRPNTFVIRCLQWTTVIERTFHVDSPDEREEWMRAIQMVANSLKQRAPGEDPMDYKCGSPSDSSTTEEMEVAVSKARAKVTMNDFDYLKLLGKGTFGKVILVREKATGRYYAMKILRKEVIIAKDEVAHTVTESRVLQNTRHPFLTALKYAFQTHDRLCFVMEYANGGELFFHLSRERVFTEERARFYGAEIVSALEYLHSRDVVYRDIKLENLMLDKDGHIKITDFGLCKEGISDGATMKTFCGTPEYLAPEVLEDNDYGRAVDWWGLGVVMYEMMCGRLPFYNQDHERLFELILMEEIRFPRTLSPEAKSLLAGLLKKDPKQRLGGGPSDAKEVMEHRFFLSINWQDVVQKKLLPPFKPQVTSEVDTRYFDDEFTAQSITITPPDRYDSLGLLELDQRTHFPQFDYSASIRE
Sequence of GSK3B (human) (P49841 whole entry, looked up): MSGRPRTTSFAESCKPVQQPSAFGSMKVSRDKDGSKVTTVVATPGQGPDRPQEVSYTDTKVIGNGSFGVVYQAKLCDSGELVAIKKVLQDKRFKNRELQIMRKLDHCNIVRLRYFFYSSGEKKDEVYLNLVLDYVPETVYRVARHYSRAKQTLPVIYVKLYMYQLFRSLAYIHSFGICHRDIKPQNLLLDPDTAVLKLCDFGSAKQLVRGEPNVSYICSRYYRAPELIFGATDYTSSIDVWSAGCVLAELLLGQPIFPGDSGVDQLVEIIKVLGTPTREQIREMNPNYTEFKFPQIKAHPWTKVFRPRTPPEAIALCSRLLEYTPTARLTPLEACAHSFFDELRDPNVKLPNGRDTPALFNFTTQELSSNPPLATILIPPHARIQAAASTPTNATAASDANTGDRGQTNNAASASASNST
Sequence of SRC (human) (P12931 whole entry, looked up): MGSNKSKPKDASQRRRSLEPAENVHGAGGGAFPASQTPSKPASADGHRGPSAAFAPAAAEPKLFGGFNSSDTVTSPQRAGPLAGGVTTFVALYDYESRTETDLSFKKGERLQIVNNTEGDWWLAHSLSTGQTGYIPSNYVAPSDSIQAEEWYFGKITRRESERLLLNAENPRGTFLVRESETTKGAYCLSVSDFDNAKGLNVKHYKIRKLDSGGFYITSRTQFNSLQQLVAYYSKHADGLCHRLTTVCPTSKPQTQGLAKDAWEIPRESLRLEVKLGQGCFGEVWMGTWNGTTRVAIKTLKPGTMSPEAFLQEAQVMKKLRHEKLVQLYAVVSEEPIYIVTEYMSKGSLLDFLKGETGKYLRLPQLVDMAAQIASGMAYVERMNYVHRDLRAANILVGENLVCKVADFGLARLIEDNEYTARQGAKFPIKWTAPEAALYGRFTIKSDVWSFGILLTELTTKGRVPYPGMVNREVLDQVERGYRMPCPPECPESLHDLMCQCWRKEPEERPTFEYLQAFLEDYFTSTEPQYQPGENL
Sequence of EPHA2 (human) (P29317 whole entry, looked up): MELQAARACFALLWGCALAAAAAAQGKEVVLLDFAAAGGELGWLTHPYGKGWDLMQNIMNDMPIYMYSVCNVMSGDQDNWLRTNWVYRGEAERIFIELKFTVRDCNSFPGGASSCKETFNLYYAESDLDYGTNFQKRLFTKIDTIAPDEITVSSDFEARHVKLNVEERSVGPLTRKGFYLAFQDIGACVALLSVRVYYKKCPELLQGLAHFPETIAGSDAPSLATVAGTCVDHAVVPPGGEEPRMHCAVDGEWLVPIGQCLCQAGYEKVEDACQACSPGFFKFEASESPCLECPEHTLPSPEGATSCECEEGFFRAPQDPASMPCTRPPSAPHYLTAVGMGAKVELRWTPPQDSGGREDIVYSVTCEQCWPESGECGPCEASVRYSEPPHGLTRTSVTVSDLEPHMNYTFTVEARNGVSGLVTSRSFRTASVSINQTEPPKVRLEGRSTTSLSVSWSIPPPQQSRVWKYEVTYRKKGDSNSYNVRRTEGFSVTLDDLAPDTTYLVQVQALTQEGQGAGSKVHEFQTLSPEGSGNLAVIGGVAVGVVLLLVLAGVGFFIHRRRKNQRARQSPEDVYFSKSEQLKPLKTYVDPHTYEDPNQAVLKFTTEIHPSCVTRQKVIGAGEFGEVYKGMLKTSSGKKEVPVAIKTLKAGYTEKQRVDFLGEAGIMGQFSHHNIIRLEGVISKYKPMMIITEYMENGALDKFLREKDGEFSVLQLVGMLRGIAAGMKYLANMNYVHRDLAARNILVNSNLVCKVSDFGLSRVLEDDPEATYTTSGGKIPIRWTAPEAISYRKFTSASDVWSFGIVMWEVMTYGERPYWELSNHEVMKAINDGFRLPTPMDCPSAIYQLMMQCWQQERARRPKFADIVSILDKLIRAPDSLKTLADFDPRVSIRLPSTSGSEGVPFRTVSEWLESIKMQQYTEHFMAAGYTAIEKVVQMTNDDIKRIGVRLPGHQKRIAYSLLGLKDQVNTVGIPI
Sequence of IGF1R (human) (P08069 whole entry, looked up): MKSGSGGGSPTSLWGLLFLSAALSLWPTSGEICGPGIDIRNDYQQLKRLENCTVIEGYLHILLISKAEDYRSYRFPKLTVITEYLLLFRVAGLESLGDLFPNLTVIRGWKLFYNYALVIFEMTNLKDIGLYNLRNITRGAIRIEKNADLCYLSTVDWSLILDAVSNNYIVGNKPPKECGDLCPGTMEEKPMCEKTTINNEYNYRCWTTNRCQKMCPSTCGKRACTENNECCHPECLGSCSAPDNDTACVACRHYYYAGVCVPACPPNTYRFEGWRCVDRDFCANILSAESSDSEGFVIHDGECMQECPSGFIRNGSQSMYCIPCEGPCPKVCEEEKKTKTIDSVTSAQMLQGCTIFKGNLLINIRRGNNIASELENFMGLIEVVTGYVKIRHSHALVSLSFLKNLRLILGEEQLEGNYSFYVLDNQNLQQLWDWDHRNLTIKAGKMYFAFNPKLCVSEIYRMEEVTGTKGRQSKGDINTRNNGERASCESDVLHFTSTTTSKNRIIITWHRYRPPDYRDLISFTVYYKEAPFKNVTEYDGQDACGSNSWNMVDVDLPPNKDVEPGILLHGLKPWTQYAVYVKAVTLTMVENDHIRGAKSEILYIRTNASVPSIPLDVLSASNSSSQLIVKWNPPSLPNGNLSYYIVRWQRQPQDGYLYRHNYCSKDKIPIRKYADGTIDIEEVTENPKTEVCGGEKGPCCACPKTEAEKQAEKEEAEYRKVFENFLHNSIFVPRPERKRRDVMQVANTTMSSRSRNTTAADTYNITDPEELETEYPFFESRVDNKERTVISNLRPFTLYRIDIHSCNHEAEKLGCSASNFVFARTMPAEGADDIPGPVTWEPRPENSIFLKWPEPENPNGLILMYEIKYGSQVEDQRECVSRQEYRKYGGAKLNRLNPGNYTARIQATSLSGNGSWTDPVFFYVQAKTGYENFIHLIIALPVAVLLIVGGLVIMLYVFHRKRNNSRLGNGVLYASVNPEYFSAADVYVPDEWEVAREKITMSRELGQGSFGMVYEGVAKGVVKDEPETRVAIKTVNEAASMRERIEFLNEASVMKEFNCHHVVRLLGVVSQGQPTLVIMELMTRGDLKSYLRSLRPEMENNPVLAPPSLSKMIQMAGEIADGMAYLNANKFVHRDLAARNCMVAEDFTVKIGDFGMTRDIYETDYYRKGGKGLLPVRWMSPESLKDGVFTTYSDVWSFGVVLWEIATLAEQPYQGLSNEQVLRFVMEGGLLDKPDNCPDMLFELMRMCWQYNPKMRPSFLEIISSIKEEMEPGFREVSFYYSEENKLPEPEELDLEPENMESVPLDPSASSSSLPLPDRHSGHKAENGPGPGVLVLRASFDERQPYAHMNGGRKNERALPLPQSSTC
Sequence of FGFR1 (human) (P11362 whole entry, looked up): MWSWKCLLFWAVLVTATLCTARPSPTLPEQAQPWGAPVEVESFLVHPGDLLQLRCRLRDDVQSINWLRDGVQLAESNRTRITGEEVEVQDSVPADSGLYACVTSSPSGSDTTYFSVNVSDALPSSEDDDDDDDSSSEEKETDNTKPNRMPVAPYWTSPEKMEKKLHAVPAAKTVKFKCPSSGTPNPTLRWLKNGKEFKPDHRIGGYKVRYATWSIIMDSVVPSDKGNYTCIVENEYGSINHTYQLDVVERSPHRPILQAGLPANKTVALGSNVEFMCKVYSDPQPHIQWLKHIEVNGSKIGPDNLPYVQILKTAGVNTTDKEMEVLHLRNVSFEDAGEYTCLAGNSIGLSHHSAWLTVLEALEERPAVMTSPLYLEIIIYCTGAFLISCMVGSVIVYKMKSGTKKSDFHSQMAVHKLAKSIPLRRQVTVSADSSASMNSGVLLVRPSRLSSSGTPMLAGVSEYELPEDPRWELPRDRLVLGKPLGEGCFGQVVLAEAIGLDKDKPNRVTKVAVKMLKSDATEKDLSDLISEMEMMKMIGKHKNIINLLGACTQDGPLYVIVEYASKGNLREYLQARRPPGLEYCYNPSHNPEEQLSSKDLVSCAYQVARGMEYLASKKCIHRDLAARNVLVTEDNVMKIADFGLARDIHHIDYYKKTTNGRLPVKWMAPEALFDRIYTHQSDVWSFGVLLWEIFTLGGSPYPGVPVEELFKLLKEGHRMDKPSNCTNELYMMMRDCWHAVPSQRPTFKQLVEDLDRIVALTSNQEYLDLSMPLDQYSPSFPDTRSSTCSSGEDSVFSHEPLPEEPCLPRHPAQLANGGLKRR

`Cn1c(=O)c2c(ncn2C)n(C)c1=O` showed a residual activity (MELK (human); compound 0.1 µM) of 98%, a residual activity (MELK (human); compound 1.0 µM) of 90% and a residual activity (INSR (human); compound 0.1 µM) of 104%. The residual activity (PRKCZ (human); compound 0.1 µM) was 95%, the residual activity (PRKCZ (human); compound 1.0 µM) was 88% and the residual activity (MAPK15 (human); compound 0.1 µM) was 88%. For the same molecule, the residual activity (MAPK15 (human); compound 1.0 µM) was 95%, the residual activity (MAPK11 (human); compound 0.1 µM) was 107% and the residual activity (MAPK11 (human); compound 1.0 µM) was 104%. The residual activity (MAPKAPK5 (human); compound 0.1 µM) was 96%, the residual activity (MAPKAPK5 (human); compound 1.0 µM) was 86% and the residual activity (RPS6KA3 KD1 KD2 (human); compound 0.1 µM) was 98%. It also gave a residual activity (RPS6KA3 KD1 KD2 (human); compound 1.0 µM) of 79%, a residual activity (SRC (human); compound 0.1 µM) of 96% and a residual activity (SRC (human); compound 1.0 µM) of 88%. For the same molecule, the residual activity (IGF1R (human); compound 0.1 µM) was 86%, the residual activity (IGF1R (human); compound 1.0 µM) was 94% and the residual activity (CAMKK2 (human); compound 0.1 µM) was 104%. The residual activity (CAMKK2 (human); compound 1.0 µM) was 103%, the residual activity (CSNK1D (human); compound 0.1 µM) was 118% and the residual activity (CSNK1D (human); compound 1.0 µM) was 120%. It also gave a residual activity ([1]; compound 0.1 µM) of 81%, a residual activity ([1]; compound 1.0 µM) of 84% and a residual activity (ROCK2 (rat); compound 0.1 µM) of 91%. The residual activity (ROCK2 (rat); compound 1.0 µM) was 93%, the residual activity (CSK (human); compound 0.1 µM) was 100% and the residual activity (CSK (human); compound 1.0 µM) was 103%. The residual activity (GSK3B (human); compound 0.1 µM) was 102%, the residual activity (GSK3B (human); compound 1.0 µM) was 101% and the residual activity (EPHA2 (human); compound 0.1 µM) was 96%. It also gave a residual activity (EPHA2 (human); compound 1.0 µM) of 102%, a residual activity (LCK (mouse); compound 0.1 µM) of 88% and a residual activity (LCK (mouse); compound 1.0 µM) of 92%. The residual activity (FGFR1 (human); compound 0.1 µM) was 118%, the residual activity (FGFR1 (human); compound 1.0 µM) was 112% and the residual activity (MAPK14 (human); compound 0.1 µM) was 88%. It also gave a residual activity (MAPK14 (human); compound 1.0 µM) of 89%, a residual activity (DYRK3 (human); compound 0.1 µM) of 96% and a residual activity (DYRK3 (human); compound 1.0 µM) of 98%. It also gave a residual activity (FLT1 (human); compound 0.1 µM) of 80% and a residual activity (FLT1 (human); compound 1.0 µM) of 84%.

With `CCc1cncnc1N1CCN(Cc2nc3cc(C(F)(F)F)ccc3[nH]2)CC1` the residual activity (MELK (human); compound 0.1 µM) was 94%, the residual activity (MELK (human); compound 1.0 µM) was 101% and the residual activity (MELK (human); compound 10.0 µM) was 87%. The residual activity (INSR (human); compound 0.1 µM) was 108%, the residual activity (INSR (human); compound 1.0 µM) was 95% and the residual activity (INSR (human); compound 10.0 µM) was 96%. It also gave a residual activity (PRKCZ (human); compound 0.1 µM) of 78%, a residual activity (PRKCZ (human); compound 1.0 µM) of 75% and a residual activity (PRKCZ (human); compound 10.0 µM) of 70%. It also gave a residual activity (MAPK15 (human); compound 0.1 µM) of 85%, a residual activity (MAPK15 (human); compound 1.0 µM) of 83% and a residual activity (MAPK15 (human); compound 10.0 µM) of 71%. The residual activity (MAPK11 (human); compound 0.1 µM) was 88%, the residual activity (MAPK11 (human); compound 1.0 µM) was 89% and the residual activity (MAPK11 (human); compound 10.0 µM) was 97%. For the same molecule, the residual activity (MAPKAPK5 (human); compound 0.1 µM) was 114%, the residual activity (MAPKAPK5 (human); compound 1.0 µM) was 97% and the residual activity (MAPKAPK5 (human); compound 10.0 µM) was 87%. For the same molecule, the residual activity (RPS6KA3 KD1 KD2 (human); compound 0.1 µM) was 86%, the residual activity (RPS6KA3 KD1 KD2 (human); compound 1.0 µM) was 67% and the residual activity (RPS6KA3 KD1 KD2 (human); compound 10.0 µM) was 25%. For the same molecule, the residual activity (SRC (human); compound 0.1 µM) was 103%, the residual activity (SRC (human); compound 10.0 µM) was 92% and the residual activity (IGF1R (human); compound 0.1 µM) was 72%. It also gave a residual activity (IGF1R (human); compound 1.0 µM) of 95%, a residual activity (IGF1R (human); compound 10.0 µM) of 82% and a residual activity (CAMKK2 (human); compound 0.1 µM) of 99%. For the same molecule, the residual activity (CAMKK2 (human); compound 1.0 µM) was 98%, the residual activity (CAMKK2 (human); compound 10.0 µM) was 80% and the residual activity (CSNK1D (human); compound 0.1 µM) was 96%. The residual activity (CSNK1D (human); compound 1.0 µM) was 93%, the residual activity (CSNK1D (human); compound 10.0 µM) was 71% and the residual activity ([1]; compound 0.1 µM) was 74%. The residual activity ([1]; compound 1.0 µM) was 73%, the residual activity ([1]; compound 10.0 µM) was 60% and the residual activity (ROCK2 (rat); compound 0.1 µM) was 98%. It also gave a residual activity (ROCK2 (rat); compound 1.0 µM) of 91%, a residual activity (ROCK2 (rat); compound 10.0 µM) of 58% and a residual activity (CSK (human); compound 0.1 µM) of 94%. The residual activity (CSK (human); compound 1.0 µM) was 93%, the residual activity (CSK (human); compound 10.0 µM) was 98% and the residual activity (GSK3B (human); compound 0.1 µM) was 87%. The residual activity (GSK3B (human); compound 1.0 µM) was 96%, the residual activity (GSK3B (human); compound 10.0 µM) was 92% and the residual activity (EPHA2 (human); compound 0.1 µM) was 95%. For the same molecule, the residual activity (EPHA2 (human); compound 1.0 µM) was 86%, the residual activity (EPHA2 (human); compound 10.0 µM) was 89% and the residual activity (LCK (mouse); compound 0.1 µM) was 91%. It also gave a residual activity (LCK (mouse); compound 1.0 µM) of 92%, a residual activity (LCK (mouse); compound 10.0 µM) of 88% and a residual activity (FGFR1 (human); compound 0.1 µM) of 91%. For the same molecule, the residual activity (FGFR1 (human); compound 1.0 µM) was 92%, the residual activity (FGFR1 (human); compound 10.0 µM) was 63% and the residual activity (MAPK14 (human); compound 0.1 µM) was 86%. It also gave a residual activity (MAPK14 (human); compound 1.0 µM) of 79%, a residual activity (MAPK14 (human); compound 10.0 µM) of 86% and a residual activity (DYRK3 (human); compound 0.1 µM) of 106%. The residual activity (DYRK3 (human); compound 1.0 µM) was 92%, the residual activity (DYRK3 (human); compound 10.0 µM) was 83% and the residual activity (FLT1 (human); compound 0.1 µM) was 97%. It also gave a residual activity (FLT1 (human); compound 1.0 µM) of 83% and a residual activity (FLT1 (human); compound 10.0 µM) of 37%.

Molecule `O=C1Nc2nc(-c3c(O)cccc3OCC3CC3)cc(C3CCCNC3)c2CO1` (configuration not stated) has a residual activity (MELK (human); compound 10.0 µM) of 58%, a residual activity (INSR (human); compound 1.0 µM) of 94% and a residual activity (INSR (human); compound 10.0 µM) of 96%. For the same molecule, the residual activity (PRKCZ (human); compound 10.0 µM) was 10%, the residual activity (MAPK15 (human); compound 1.0 µM) was 53% and the residual activity (MAPK15 (human); compound 10.0 µM) was 10%. The residual activity (MAPK11 (human); compound 1.0 µM) was 91%, the residual activity (MAPK11 (human); compound 10.0 µM) was 74% and the residual activity (MAPKAPK5 (human); compound 1.0 µM) was 74%. It also gave a residual activity (MAPKAPK5 (human); compound 10.0 µM) of 58%, a residual activity (RPS6KA3 KD1 KD2 (human); compound 1.0 µM) of 80% and a residual activity (RPS6KA3 KD1 KD2 (human); compound 10.0 µM) of 53%. It also gave a residual activity (SRC (human); compound 1.0 µM) of 91%, a residual activity (SRC (human); compound 10.0 µM) of 83% and a residual activity (IGF1R (human); compound 1.0 µM) of 80%. The residual activity (CAMKK2 (human); compound 1.0 µM) was 94%, the residual activity (CAMKK2 (human); compound 10.0 µM) was 78% and the residual activity (CSNK1D (human); compound 1.0 µM) was 81%. The residual activity (CSNK1D (human); compound 10.0 µM) was 43%, the residual activity ([1]; compound 1.0 µM) was 88% and the residual activity ([1]; compound 10.0 µM) was 61%. For the same molecule, the residual activity (ROCK2 (rat); compound 1.0 µM) was 73%, the residual activity (ROCK2 (rat); compound 10.0 µM) was 39% and the residual activity (CSK (human); compound 1.0 µM) was 91%. The residual activity (CSK (human); compound 10.0 µM) was 92%, the residual activity (GSK3B (human); compound 1.0 µM) was 126% and the residual activity (GSK3B (human); compound 10.0 µM) was 99%. For the same molecule, the residual activity (EPHA2 (human); compound 1.0 µM) was 96%, the residual activity (EPHA2 (human); compound 10.0 µM) was 84% and the residual activity (LCK (mouse); compound 1.0 µM) was 88%. The residual activity (LCK (mouse); compound 10.0 µM) was 74%, the residual activity (FGFR1 (human); compound 1.0 µM) was 96% and the residual activity (FGFR1 (human); compound 10.0 µM) was 79%. It also gave a residual activity (MAPK14 (human); compound 1.0 µM) of 91%, a residual activity (MAPK14 (human); compound 10.0 µM) of 78% and a residual activity (DYRK3 (human); compound 1.0 µM) of 71%. It also gave a residual activity (DYRK3 (human); compound 10.0 µM) of 24%, a residual activity (FLT1 (human); compound 1.0 µM) of 112% and a residual activity (FLT1 (human); compound 10.0 µM) of 116%.
